In patent US20250134849A1, “PHARMACEUTICAL COMPOSITION FOR PREVENTING OR TREATING OCULAR DISEASE COMPRISING ENAVOGLIFLOZIN” (DAEWOONG THERAPEUTICS INC., priority 2023, published 2025):

Test system: Macular Degeneration Animal Model
Test: Laser-induced macular degeneration animal model, fundus fluorescein angiography
Assay type: in vivo, Chinchilla rabbits
Conditions: intravitreal injection 2000 μg, n=5
Procedure: Chinchilla rabbits (n=24, male) were raised at a temperature of 23±3° C., relative humidity of 55±15%, ventilation frequency of 10 to 20 times/hr, lighting time of 12 hours, and illuminance of 150 to 300 Lux. The environmental conditions such as temperature/humidity of the animal room, ventilation frequency and illuminance were measured regularly during the raising period. During the acclimation, administration, and observation periods, the rabbits were raised in a stainless-steel breeding box (W500×L800×H500 mm) at 1 animal per breeding box. The breeding boxes were cleaned every day and water bottles were exchanged every day. […]
On the 7th and 14th days after the start of administration in each group, a mydriatic agent (Mydriacyl® Eye Drops 1%) was instilled into the right eye of the rabbits, followed by anesthetizing. […] The efficacies were evaluated through retinal fundus fluorescein angiography. It was confirmed that the fluorescence intensity levels on days 7 and 14 in all macular degeneration-induced groups were higher than those in the normal control groups, G5 and G6 (p<0.001 or p<0.05).
The average fluorescence intensities of the vehicle-administered groups (G7 and G8) were set to 100% and the relative levels (%) of the fluorescence intensities measured in each animal were analyzed. […]

With Aflibercept [Comparative Example 2] the “Fluorescence intensity at Day 7 (%), Mean” value (day 7, relative to vehicle group G7 = 100%) was 93.345% and the “Fluorescence intensity at Day 14 (%), Mean” value (day 14, relative to vehicle group G8 = 100%) was 69.403%.
